Experimental data from publication PMC8705904, “Structural Bases for Hesperetin Derivatives: Inhibition of Protein Tyrosine Phosphatase 1B, Kinetics Mechanism and Molecular Docking Study” (Molecules, 2021).

Columns and labels:
[1] = molecular target: T1, PTP1B (human recombinant) (Homo sapiens, UniProt P18031); assay: PTP1B inhibitory assay using pNPP; type: biochemical; details: for IC50: mean ± S.E.M of triplicate experiments, substrate pNPP
T1 construct: purchased Biomol International LP (Plymouth Meeting, PA, USA)
T1 sequence (P18031 1-435): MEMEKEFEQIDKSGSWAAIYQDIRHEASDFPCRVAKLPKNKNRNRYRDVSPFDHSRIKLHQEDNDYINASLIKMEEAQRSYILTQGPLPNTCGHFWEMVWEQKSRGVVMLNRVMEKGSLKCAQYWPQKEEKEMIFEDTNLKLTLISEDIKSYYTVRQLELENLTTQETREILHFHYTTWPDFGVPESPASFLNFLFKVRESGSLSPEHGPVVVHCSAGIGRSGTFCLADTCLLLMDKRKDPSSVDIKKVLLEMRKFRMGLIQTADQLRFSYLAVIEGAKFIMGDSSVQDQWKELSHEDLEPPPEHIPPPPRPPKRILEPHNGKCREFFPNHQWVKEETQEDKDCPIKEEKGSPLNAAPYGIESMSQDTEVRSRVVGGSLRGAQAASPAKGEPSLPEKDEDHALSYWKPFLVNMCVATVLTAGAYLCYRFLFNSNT
Description: (§1) The PTP1B inhibitory activity was evaluated using pNPP according to the work of Jung et al.. In each well of a 96-well plate (each with a final volume of 100 µL), 40 µL of PTP1B enzyme [0.5 units diluted with a PTP1B reaction buffer containing 50 mM citrate (pH 6.0), 0.1 M NaCl, 1 mM EDTA, and 1 mM DTT] was added with or without the sample dissolved in 10% DMSO. The plate was preincubated at 37 °C for 10 min and then 50 µL of 2 mM pNPP in the PTP1B reaction buffer was added. Following incubation at 37 °C for 20 min, the reaction was terminated by the addition of 10 M NaOH. […] The inhibition percentage was obtained using the following equation: % inhibition = (Ac − As)/Ac × 100, where Ac is the absorbance of the control and As is the absorbance of the sample.

[2] = molecular target: T1, PTP1B (human recombinant); assay: Kinetic analysis of PTP1B inhibition (Lineweaver–Burk and Dixon plots); type: biochemical; details: for Ki: determined by Dixon plots; for PTP1B type of inhibition: determined by Lineweaver–Burk plots, pNPP 0.5, 1.0 and 2.0 mM
Description: as §1
To determine the kinetic mechanism, two kinetic methods using Lineweaver–Burk and Dixon plots were complementarily used. […] The enzymatic inhibitions of the test flavonoids were evaluated by monitoring the effects of different concentrations of the […] in the Dixon plots (single reciprocal plot). The enzymatic procedure consisted of the same, aforementioned, PTP1B assay method. The inhibition constants (Ki) were determined by interpretation of the Dixon plots, where the value of the x-axis implies -Ki.

SMILES | IC50 [1] | Ki [2] | PTP1B type of inhibition [2] | PTP1B type of inhibition ([2]; listed as hesperetin 5-O-glucoside) | PTP1B inhibitory activity (in words) [1] | PTP1B type of inhibition ([2]; listed as hesperetin) | PTP1B type of inhibition ([2]; listed as hesperidin) | PTP1B type of inhibition ([2]; listed as neohesperidin)
COc1ccc(C2CC(=O)c3c(cc(O)cc3OC3OC(CO)C(O)C(O)C3O)O2)cc1O (stereo not drawn) [Hesperetin 5-O-glucoside] | 37.14 ± 0.07 µM | 81.6 µM | Mixed | mixed-type inhibition |  |  |  | 
COc1ccc(C2CC(=O)c3c(O)cc(OC4OC(CO)C(O)C(O)C4O)cc3O2)cc1O (stereo not drawn) [Hesperetin 7-O-glucoside] | > 300 µM |  |  |  | inactive |  |  | 
COc1ccc([C@@H]2CC(=O)c3c(O)cc(O)cc3O2)cc1O [Hesperetin] | 288 ± 7.98 µM | 295 µM | Uncompetitive |  |  | uncompetitive-type inhibition |  | 
COc1ccc(C2CC(=O)c3c(O)cc(OC4OC(COC5OC(C)C(O)C(O)C5O)C(O)C(O)C4O)cc3O2)cc1O (stereo not drawn) [Hesperidin, hesperetin 7-O-rutinoside] | 58.1 ± 4.18 µM | 50 µM | Mixed |  |  |  | mixed-type inhibition | 
COc1ccc(C2CC(=O)c3c(O)cc(OC4OC(CO)C(O)C(O)C4OC4OC(C)C(O)C(O)C4O)cc3O2)cc1O (stereo not drawn) [Neohesperidin, hesperetin 7-O-neohesperidoside] | 144 ± 3.04 µM | 154 µM | Uncompetitive |  |  |  |  | uncompetitive-type inhibition
